{"source": "patent US20260242365A1", "about": "“USES OF CERTAIN 1,4-OXAZEPANE-2-CARBOXAMIDES AS DPP1 INHIBITORS” (Insmed Incorporated, priority 2023, published 2026)", "target": "T1, DPP1 in HL-60 cells (Homo sapiens, UniProt P53634)", "T1 construct": "HL-60 cells (ATCC; host or cells: HL-60", "T1 sequence (P53634 25-463)": "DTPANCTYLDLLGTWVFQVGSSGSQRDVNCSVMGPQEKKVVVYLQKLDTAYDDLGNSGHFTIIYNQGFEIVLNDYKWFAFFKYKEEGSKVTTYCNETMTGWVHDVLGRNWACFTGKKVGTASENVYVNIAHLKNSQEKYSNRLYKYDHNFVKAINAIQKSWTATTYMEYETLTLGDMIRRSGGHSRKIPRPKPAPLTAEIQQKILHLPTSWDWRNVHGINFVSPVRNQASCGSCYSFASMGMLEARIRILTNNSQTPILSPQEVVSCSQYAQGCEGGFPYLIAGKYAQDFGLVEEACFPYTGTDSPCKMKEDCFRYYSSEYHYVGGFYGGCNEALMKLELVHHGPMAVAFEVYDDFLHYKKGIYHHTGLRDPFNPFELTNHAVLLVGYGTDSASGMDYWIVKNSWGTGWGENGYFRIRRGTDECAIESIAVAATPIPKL", "assay": "DPP1 Cell IC50 Assay", "type": "cell-based", "settings": "H-Gly-Phe-AFC substrate", "protocol": "HL-60 cells (ATCC; Manassas, VA) were maintained in RPMI-1640 supplemented with 20% heat-inactivated FBS and 1X Antibiotic Antimycotic (Cytiva; Marlborough, MA). Media was changed every three to four days and cells were not allowed to exceed 1×10^6 cells per mL. Prior to assay, cells were collected by centrifugation at 500 rcf for 3 minutes, resuspended in RPMI and counted. Cells were diluted in RPMI to a concentration of 5×10^5 live cells per mL and transferred to black 96-well plates for assay, 60 μL per well. Test articles were diluted in RPMI plus 0.5% DMSO, and 20 μL was added to each assay well. Compound was allowed to pre-incubate with cells with gentle shaking at 100 rpm for 60 minutes at 37° C. in a cell culture incubator maintained at 5% CO2, after which 20 μL of 500 μM H-Gly-Phe-AFC substrate (MP Biomedicals; Solon, OH) in RPMI was added to each well. Plates were returned to the incubator with shaking at 100 rpm for 30 minutes, after which fluorescence was measured at Excitation/Emission 400/505 nm. Percent (%) Inhibition was calculated from RFU values compared to control cell wells that received only RPMI plus 0.5% DMSO. IC50 values for each compound were calculated via the XLFit (IDBS Version 5.3.1.3) Add-On to Microsoft Excel using the four parameter fit equation y=(A+ ((B−A)/(1+ ((C/x)^D)))), which appears as equation number 205 (4 Parameter Logistic Model or Sigmoidal Dose-Response Model) in XLFit.", "data": [{"smiles": "Cn1c(=O)oc2ccc(-c3ccc(C[C@@H](C#N)NC(=O)[C@@H]4CNC[C@H](O)CO4)cc3)cc21", "note": "(single isomer, unassigned) [INSM-201, (2S,6S*)—N-[(1S)-1-cyano-2-[4-(3-methyl-2-oxo-2,3-dihydro-1,3-benzoxazol-5-yl)phenyl]ethyl]-6-hydroxy-1,4-oxazepane-2-carboxamide]", "values": [{"measurement": "IC50", "result": "13.4 ± 4.1", "unit": "nM"}]}, {"smiles": "COC1CNC[C@@H](C(=O)N[C@H](C#N)Cc2ccc(-c3ccc4oc(=O)n(C)c4c3)cc2)OC1", "note": "(mixture of isomers) [INSM-202, (6-rac)-(2S)—N-[(1S)-1-cyano-2-[4-(3-methyl-2-oxo-2,3-dihydro-1,3-benzoxazol-5-yl)phenyl]ethyl]-6-methoxy-1,4-oxazepane-2-carboxamide]", "values": [{"measurement": "IC50", "result": "1.1 ± 0.2", "unit": "nM"}]}, {"smiles": "COC1CNC[C@@H](C(=O)N[C@H](C#N)Cc2ccc(-c3ccc4oc(=O)n(C)c4c3)cc2)OC1", "note": "(single isomer, unassigned) [INSM-203, (2S,6R*)—N-[(1S)-1-cyano-2-[4-(3-methyl-2-oxo-2,3-dihydro-1,3-benzoxazol-5-yl)phenyl]ethyl]-6-methoxy-1,4-oxazepane-2-carboxamide]", "values": [{"measurement": "IC50", "result": "0.6 ± 0.01", "unit": "nM"}]}]}
